Assay type in all cases: in vivo
One assay concerns caffeine in water. Put plainly: Two-alternative forced choice (2AFC) difference test. The procedure:
The bitter blocker candidates BB09, BB11, and BB13 were subject to a two-alternative forced choice (2AFC) difference test wherein panelists were presented Control Caffeine solutions and Test solutions containing caffeine and one of three bitterness blocker candidates (BB09, BB 11, or BB13). Panelists were asked to evaluate the two samples and answer the question, “which one is more hitter?”
BB09 and BB11 were tested first. Three ounces of control (caffeine in water), BB09 in caffeine water, and BB11 in caffeine water were presented at room temperature in separate plastic souffle cups labeled with 3-digit codes. Ten sensory trained panelists evaluated each sample in three repetitions with a 10 minute break between repetitions. Panelists then completed the 2AFC. Data was collected on EveQuestion and analyzed on XLSTAT. Testing was conducted at Sensations Research according to FEMA guidelines.
BB13 was tested separately. Two ounces of control (caffeine in water), BB13 in caffeine water were presented at room temperature in separate plastic souffle cups labeled with 3-digit codes. Fifteen participants evaluated each sample in two repetitions with a 10 minute break between repetitions for a total of thirty evaluations as per the FEMA guidelines. Panelists then completed the 2AFC to identify the more bitter sample. Data was collected and analyzed on Compusense.

Assay [1] has as its system full spectrum CBD hemp oil nanoemulsion. Kind of assay: Sensory evaluation: bitterness reduction of full spectrum CBD hemp oil. The conditions noted are these: dosage 50 or 100 ppm per sample. The procedure:
The bitterness blocker candidates listed in Table 1 were prepared into a 1% sample solution with propylene glycol and heated to ensure complete solubilization. […] A full spectrum CBD hemp oil was emulsified into a water-soluble nanoemulsion first, to which was added the respective sample solution. […] A trained sensory evaluator was asked to estimate the perceived bitterness reduction against the control, as well as to provide comments on how the addition of the individual sample solution modulated the taste and mouth feel profile of the resulting oil nanoemulsion.

The subject of another assay is 0.25% caffeine solution. Kind of assay: Sensory evaluation: bitterness reduction of a caffeine solution. The conditions noted are these: one trained sensory evaluator, vs control, dosage (ppm) per sample (20 to 50-100 ppm). Here is the method: The bitter blocker candidates listed in Table 1 were prepared into a 1% sample solution with propylene glycol (i.e., 1 g of bitter blocker per 100 ml of propylene glycol) and heated to ensure complete solubilization. […] A trained sensory evaluator was asked to estimate the perceived bitterness reduction against the control, as well as to provide comments on how the addition of the individual sample solution modulated the taste and mouth feel profile of the resulting caffeine solution.

Consider `COc1cc([C@@H]2CC(=O)c3c(O)cc(O)cc3O2)ccc1O[C@@H]1O[C@H](CO)[C@@H](O)[C@H](O)[C@H]1O` [BB11, Homoeriodictyol 4′-O-glucoside], for which the “Significant?” value in the assay on caffeine in water (2AFC, 90% confidence level, which sample is more bitter) is listed as “Yes,”. In addition, the “# Selected Variant (which is more bitter?)” value with caffeine in water (of 30 responses (10 panelists, 3 evaluations), control caffeine in water vs variant in caffeine water) turned out to be 10. Also, in assay [1], the Comments entry is “Nice upfront bitterness reduction” and the “Estimated % bitterness reduction” value is 60%. For the same compound, in the assay with 0.25% caffeine solution, the “Estimated % bitterness reduction” value is given as 60-80% ^.

Values taken from patent publication US20230270148A1, “BITTER BLOCKERS AND RELATED METHODS OF USE” (Conagen Inc., priority 2020, published 2023).
